Results taken from US11110060B2, “Compositions and methods for delivering pharmaceutical agents” (Arizona Board of Regents on Behalf of the University of …, priority 2017, dated 2021).

Legend:
[1] = system: human buccal cell line (T146); experiment: In vitro viability of human buccal cell line (T146), dose-response for safety/toxicity; type: cell-based; conditions: dose-response of sodium suramin, FIG. 8
Excerpt: FIG. 8: In vitro viability of human buccal cell line (T146): dose-response of sodium suramin for safety/toxicity.
Suramin alone is amorphous or liquid-crystalline (FIGS. 5-7) and is safe in a human cell line (FIG. 8).

[2] = system: chronic wounds in diabetic and healthy mice; experiment: Wound healing in chronic wounds in diabetic (ob/ob) and healthy mice; type: in vivo
Protocol: FIG. 25: suramin treatment results in increased granulation tissue and wound contraction. A) control. B) 0.15 μg surmain-treated; C) 1.5 μg surmain-treated; and d) 15 μg surmain-treated.

[3] = mice, 0.15, 1.5 and 15 μg suramin-treated vs control, FIG. 25

Cc1ccc(C(=O)Nc2ccc(S(=O)(=O)O)c3cc(S(=O)(=O)O)cc(S(=O)(=O)O)c23)cc1NC(=O)c1cccc(NC(=O)Nc2cccc(C(=O)Nc3cc(C(=O)Nc4ccc(S(=O)(=O)O)c5cc(S(=O)(=O)O)cc(S(=O)(=O)O)c45)ccc3C)c2)c1 [suramin]
safety in a human cell line (in vitro viability) [1]: safe | granulation tissue [2, 3]: increased | wound contraction [2, 3]: increased | wound healing relative to controls ([2]; ob/ob mice, suramin treatment at different concentrations, FIG. 24): accelerated wound healing
